Laboratory results: ChEMBL document CHEMBL1201862, “PubChem BioAssay data set” (2004)
Several values for one entry are separate records, joined by “and”; a condition that tells them apart may be missing. Equal entries are not always repeated.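 Following 48 hours of exposure in 96-well plates, responses at five concentrations were used to interpolate endpoints linearly. GI50 marks 50% less growth.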 Activity calls are given as the source filed them. No stated cut-off is given here; in the data, active = GI50 up to about 1.1 µM and inactive = higher.

Experiments:
Test in all cases: NCI tumour cell line growth inhibition, 48 h
K562 = test system: K562
NCI-H522 = test system: NCI-H522
HOP-62 = test system: HOP-62
CCRF-CEM = test system: CCRF-CEM
SW-620 = test system: SW-620
SK-OV-3 = test system: SK-OV-3
SK-MEL-5 = test system: SK-MEL-5
NCI-H23 = test system: NCI-H23
HOP-92 = test system: HOP-92
OVCAR-5 = test system: OVCAR-5
HCT-15 = test system: HCT-15
SF-295 = test system: SF-295
M14 = test system: M14
HT-29 = test system: HT-29
NCI-H460 = test system: NCI-H460
SF-539 = test system: SF-539
RPMI-8226 = test system: RPMI-8226
RXF 393 = test system: RXF 393

Measured: GI50

C=CCn1c(=S)sc2c(O)ncnc21
inactive: K562 > 100 µM | NCI-H522 > 100 µM | HOP-62 > 100 µM | CCRF-CEM > 100 µM | SW-620 > 100 µM | SK-OV-3 > 100 µM | SK-MEL-5 > 100 µM | NCI-H23 > 100 µM | HOP-92 94 µM | OVCAR-5 > 100 µM | SF-295 > 100 µM | M14 > 100 µM | HT-29 > 100 µM | NCI-H460 > 100 µM | SF-539 > 100 µM
> 100 µM: HCT-15

COC(=O)C(Cc1nc2ccccc2nc1C)/C(=N\NC(N)=O)C(=O)Nc1cccc([N+](=O)[O-])c1 (configuration not stated)
> 100 µM: HCT-15
inactive: K562 64.3 µM | RPMI-8226 > 100 µM | NCI-H522 10.8 µM | HOP-62 > 100 µM | CCRF-CEM 29.6 µM | SW-620 > 100 µM | SK-OV-3 > 100 µM | SK-MEL-5 > 100 µM | NCI-H23 71.8 µM | OVCAR-5 > 100 µM | SF-295 > 100 µM | M14 > 100 µM | HT-29 > 100 µM | NCI-H460 > 100 µM | SF-539 74.3 µM | RXF 393 36.8 µM

Cc1ccc(N2C(=O)/C(=C3\Sc4c(nc(C)[nH]c4=O)N3c3ccccc3)SC2=S)cc1
inactive: K562 32 µM | RPMI-8226 > 100 µM | NCI-H522 48.4 µM | HOP-62 10.4 µM | CCRF-CEM 44.6 µM | SW-620 > 100 µM | SK-OV-3 15.8 µM | SK-MEL-5 > 100 µM | NCI-H23 19.8 µM | HOP-92 41.5 µM | OVCAR-5 > 100 µM | SF-295 18 µM | M14 19.7 µM | HT-29 68.9 µM | NCI-H460 22.2 µM | SF-539 10 µM
16.4 µM: HCT-15

COC(=O)C1=CC2CC1C(S(=O)(=O)c1ccccc1)C2S(=O)(=O)c1ccccc1 (configuration not stated)
12.5 µM: HCT-15
inactive: K562 5.14 µM | RPMI-8226 5.4 µM | HOP-62 54.3 µM | CCRF-CEM 2.92 µM | SW-620 4.59 µM | SK-OV-3 44.3 µM | SK-MEL-5 16.9 µM | NCI-H23 18.1 µM | HOP-92 15.1 µM | OVCAR-5 14.7 µM | SF-295 21.3 µM | M14 11.3 µM | HT-29 13.8 µM | NCI-H460 21.6 µM

Clc1cc2n[se]nc2cc1Cl
> 100 µM: HCT-15
inactive: K562 > 100 µM | RPMI-8226 > 100 µM | HOP-62 > 100 µM | CCRF-CEM > 100 µM | SW-620 > 100 µM | SK-OV-3 > 100 µM | SK-MEL-5 > 100 µM | NCI-H23 > 100 µM | OVCAR-5 > 100 µM | SF-295 > 100 µM | M14 > 100 µM | HT-29 > 100 µM | NCI-H460 > 100 µM | SF-539 > 100 µM | RXF 393 > 100 µM

COc1cccc2c(SCC(=O)Nc3ccccc3-c3ccccc3NC(=O)CSc3c4ccccc4nc4c(OC)cccc34)c3ccccc3nc12
inactive: K562 74.3 µM | HOP-62 > 100 µM | CCRF-CEM > 100 µM | SK-MEL-5 > 100 µM | NCI-H23 > 100 µM | OVCAR-5 > 100 µM | SF-295 > 100 µM | M14 60.1 µM | HT-29 > 100 µM | NCI-H460 > 100 µM | SF-539 60.5 µM | RXF 393 57.9 µM
> 100 µM: HCT-15

COc1ccc2nc3cc(Cl)ccc3c(Sc3ccc([N+](=O)[O-])cc3C)c2c1
> 100 µM: HCT-15
inactive: K562 > 100 µM | NCI-H522 > 100 µM | HOP-62 > 100 µM | CCRF-CEM > 100 µM | SW-620 > 100 µM | SK-OV-3 > 100 µM | SK-MEL-5 > 100 µM | NCI-H23 > 100 µM | HOP-92 > 100 µM | OVCAR-5 > 100 µM | SF-295 > 100 µM | M14 > 100 µM | NCI-H460 > 100 µM | SF-539 > 100 µM | RXF 393 > 100 µM

CC(=O)O[C@H]1CC[C@@]2(C)C(=CC[C@@H]3C2CC[C@]2(C)C(=O)NC(=O)CC32)C1 (some centres not stated)
inactive: K562 > 56 µM | NCI-H522 27.9 µM | HOP-62 > 100 µM | CCRF-CEM > 73.8 µM | SW-620 > 56.6 µM | SK-OV-3 > 100 µM | SK-MEL-5 > 100 µM | NCI-H23 > 100 µM | HOP-92 > 100 µM | OVCAR-5 > 100 µM | SF-295 > 100 µM | M14 > 100 µM | HT-29 97.5 µM | NCI-H460 > 100 µM | SF-539 > 100 µM | RXF 393 35.5 µM
68.4 µM: HCT-15

C=C/C=C/NC(=O)OCc1ccccc1
inactive: K562 > 100 µM | RPMI-8226 82.8 µM | NCI-H522 > 100 µM | HOP-62 > 100 µM | CCRF-CEM > 100 µM | SW-620 > 100 µM | SK-OV-3 > 100 µM | SK-MEL-5 > 100 µM | HOP-92 > 100 µM | OVCAR-5 > 100 µM | SF-295 > 100 µM | M14 > 100 µM | HT-29 > 100 µM | NCI-H460 > 100 µM | RXF 393 > 100 µM

NC1=NS(=O)(=O)Nc2nc(-c3ccc(Cl)cc3)c(-c3ccc(Cl)cc3)nc21
inactive: K562 34 µM | NCI-H522 48 µM | HOP-62 > 100 µM | CCRF-CEM 82.4 µM | SW-620 > 100 µM | SK-MEL-5 > 100 µM | NCI-H23 > 100 µM | HOP-92 > 100 µM | OVCAR-5 > 100 µM | SF-295 > 100 µM | M14 > 100 µM | HT-29 > 100 µM | NCI-H460 > 100 µM | SF-539 > 100 µM | RXF 393 > 100 µM

Nc1ccc(C(=O)O)c2[nH]c3ccccc3c(=O)c12
inactive: K562 > 100 µM | RPMI-8226 > 100 µM | NCI-H522 > 100 µM | HOP-62 > 100 µM | CCRF-CEM 88.7 µM | SW-620 > 100 µM | SK-OV-3 > 100 µM | SK-MEL-5 > 100 µM | HOP-92 > 100 µM | OVCAR-5 > 100 µM | SF-295 > 100 µM | M14 > 100 µM | HT-29 > 100 µM | NCI-H460 > 100 µM | SF-539 > 100 µM | RXF 393 > 100 µM
> 100 µM: HCT-15

CC1=C(C(=O)Nc2c(C)cccc2C)C(c2ccc3c(c2)OCO3)C(C(=O)Nc2c(C)cccc2C)=C(C)N1
inactive: K562 13.4 µM | NCI-H522 14.9 µM | HOP-62 23.1 µM | CCRF-CEM 7.36 µM | SW-620 18.2 µM | SK-OV-3 77.3 µM | NCI-H23 16.1 µM | OVCAR-5 19.1 µM | SF-295 16.5 µM | M14 18.1 µM | HT-29 16.2 µM | NCI-H460 18.5 µM | SF-539 19.2 µM | RXF 393 16.5 µM

CCCCCC(CN1CCOCC1)C(=O)/C=C/c1ccccc1 (configuration not stated)
inactive: K562 2.16 µM | RPMI-8226 2.11 µM | HOP-62 5 µM | CCRF-CEM 1.94 µM | SW-620 1.74 µM | SK-OV-3 2.71 µM | SK-MEL-5 1.53 µM | NCI-H23 3.36 µM | HOP-92 2.19 µM | OVCAR-5 2.63 µM | SF-295 3.46 µM | M14 2 µM | HT-29 2.67 µM | NCI-H460 2.77 µM | SF-539 2.07 µM | RXF 393 1.82 µM
2.03 µM: HCT-15

O=S(O)CCCCSSCC(O)C(O)CSSCCCCS(=O)O (configuration not stated)
inactive: K562 18.7 µM and 12.6 µM | RPMI-8226 13.5 µM and 11.8 µM | HOP-62 > 100 µM | CCRF-CEM 3.37 µM and 3.21 µM | SW-620 21.5 µM and 19.5 µM | SK-OV-3 > 100 µM | NCI-H23 18.4 µM and 29.2 µM | HOP-92 26.4 µM and 39.7 µM | OVCAR-5 > 100 µM and 74.8 µM | SF-295 15.5 µM and 12.4 µM | M14 12.9 µM and 9.08 µM | HT-29 13.5 µM and 9.16 µM | NCI-H460 52.4 µM and 40.4 µM | SF-539 17.6 µM and 23 µM | RXF 393 22.3 µM and 14.7 µM
30.5 µM and 29.6 µM: HCT-15

CCN(CC)CCCCC1CCN(CC(=O)N2c3ccccc3NC(=O)c3ccccc32)CC1
inactive: K562 > 100 µM | RPMI-8226 > 100 µM | NCI-H522 > 100 µM | HOP-62 > 100 µM | CCRF-CEM 64.9 µM | SW-620 > 100 µM | SK-OV-3 > 100 µM | SK-MEL-5 > 100 µM | NCI-H23 55.6 µM | HOP-92 > 100 µM | SF-295 > 100 µM | M14 19.4 µM | HT-29 46.7 µM | SF-539 > 100 µM

[N-]=[N+]=NC1C(Cl)C(=O)NC(=O)N1[C@H]1C[C@H](O)[C@@H](CO)O1 (some centres not stated)
inactive: K562 > 100 µM | HOP-62 > 100 µM | SW-620 > 100 µM | SK-OV-3 > 100 µM | NCI-H23 > 100 µM | HOP-92 > 100 µM | OVCAR-5 > 100 µM | SF-295 > 100 µM | M14 > 100 µM | HT-29 > 100 µM | NCI-H460 > 100 µM | SF-539 > 100 µM | RXF 393 > 100 µM

CC1CCCCc2nc3c(c(=O)n21)CCCC3 (configuration not stated)
inactive: K562 > 100 µM | NCI-H522 > 100 µM | HOP-62 > 100 µM | SW-620 > 100 µM | SK-OV-3 > 100 µM | NCI-H23 > 100 µM | HOP-92 > 100 µM | OVCAR-5 > 100 µM | SF-295 > 100 µM | M14 > 100 µM | HT-29 > 100 µM | NCI-H460 > 100 µM | SF-539 > 100 µM
> 100 µM: HCT-15
